Where a SMILES comes first, the peptide text is derived from it. Bridges are numbered along the chain shown (N, C = ends). [ ]: non-standard residue; d: D form. The star is where a group is joined. ξ: configuration not given here. Phe(4-COOH) = N[C@@H](Cc1ccc(C(=O)O)cc1)C(=O)O; Bip = N[C@@H](Cc1ccc(-c2ccccc2)cc1)C(=O)O; NH(CH2)14COOH = O=C(O)CCCCCCCCCCCCCCN*; Phe(3-Me) = Cc1cccc(C[C@H](N)C(=O)O)c1; Val(3-OH) = CC(C)(O)[C@H](N)C(=O)O; 4Pal = N[C@@H](Cc1ccncc1)C(=O)O; Cha = N[C@@H](CC1CCCCC1)C(=O)O; Cit = NC(=O)NCCC[C@H](N)C(=O)O; Ile(3ξ) = CCC(C)[C@H](N)C(=O)O; Thr(3ξ) = CC(O)[C@H](N)C(=O)O; Carboxymethyl = O=C(O)C*; NMeA = CN[C@@H](C)C(=O)O; Orn = NCCC[C@H](N)C(=O)O; Aun = NCCCCCCCCCCC(=O)O; Dab = NCC[C@H](N)C(=O)O; Dap = NC[C@H](N)C(=O)O; AEEA = NCCOCCOCC(=O)O; Ac3c = NC1(C(=O)O)CC1
target: T1, PD-1/PD-L1 interaction (PE-labeled human PD-L1-Ig binding to Jurkat cell line over-expressing human PD-1) (Homo sapiens, UniProt Q15116); assay: Jurkat-PD-1 Cell Binding High-Content Screening Assay (CBA); settings: Jurkat-hPD-1 cells, PE-labeled PD-L1-Ig 20 nM final; read-out: Jurkat HPD1 PDL1 IC50
T1 construct: expressed in transfected cells; host or cells: Jurkat
Method in brief: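 In this imaging assay, cells in 10% FCS medium see compound for 2 h at 37 °C and then labeled ligand at 20 nM final for 1 h. Paraformaldehyde fixation, Hoechst 33342 staining and dPBS washes precede image capture.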

T1 sequence (Q15116 25-288): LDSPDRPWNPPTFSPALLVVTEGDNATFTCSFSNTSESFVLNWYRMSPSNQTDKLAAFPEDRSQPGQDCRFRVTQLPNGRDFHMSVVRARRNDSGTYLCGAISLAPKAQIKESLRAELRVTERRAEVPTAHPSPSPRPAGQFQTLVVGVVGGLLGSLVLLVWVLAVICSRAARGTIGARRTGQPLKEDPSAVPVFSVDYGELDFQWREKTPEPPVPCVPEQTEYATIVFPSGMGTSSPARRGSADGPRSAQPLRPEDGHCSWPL

Row | SMILES | IC50 [nM]
1 | Cc1cccc(C[C@@H]2NC(=O)[C@H](CC(=O)O)NC(=O)[C@H](Cc3ccc(OCC(=O)O)cc3)NC(=O)[C@H]([C@@H](C)O)NC(=O)CSC[C@@H](C(=O)N[C@H](CC(N)=O)C(=O)NCCCCCCCCCCC(=O)O)NC(=O)[C@H](CCC(=O)O)NC(=O)[C@H](C(C)(C)O)NC(=O)[C@H](CC3CCCCC3)NC(=O)[C@H](CCN)NC(=O)[C@@H](CC(C)C)NC(=O)[C@H](C)N(C)C(=O)[C@H](Cc3ccc(OCC(=O)O)cc3)NC(=O)[C@H](Cc3ccc(-c4ccccc4)cc3)NC(=O)[C@H](Cc3ccc(OCC(=O)O)cc3)NC2=O)c1 [Example 1420] ({CH2CO}-TY(Carboxymethyl)D[Phe(3-Me)]Y(Carboxymethyl)[Bip]Y(Carboxymethyl)[NMeA][dL][Dab][Cha][Val(3-OH)]EC[dN][Aun]-OH; thioether N-14) | 116
2 | Cc1cccc(C[C@@H]2NC(=O)[C@H](CC(=O)O)NC(=O)[C@H](Cc3ccc(OCC(=O)O)cc3)NC(=O)[C@H]([C@@H](C)O)NC(=O)CSC[C@@H](C(=O)N[C@@H](CCN)C(=O)NCCOCCOCC(=O)NCCCCCCCCCCC(=O)O)NC(=O)[C@H](CCCN)NC(=O)[C@H](C(C)C)NC(=O)[C@H](CC3CCCCC3)NC(=O)[C@H](CCC(=O)O)NC(=O)[C@@H](CC(C)C)NC(=O)[C@H](C)N(C)C(=O)[C@H](Cc3ccc(OCC(=O)O)cc3)NC(=O)[C@H](Cc3ccc(-c4ccccc4)cc3)NC(=O)[C@H](Cc3ccc(OCC(=O)O)cc3)NC2=O)c1 [Example 1376] ({CH2CO}-TY(Carboxymethyl)D[Phe(3-Me)]Y(Carboxymethyl)[Bip]Y(Carboxymethyl)[NMeA][dL]E[Cha]V[Orn]C[Dab][AEEA][Aun]-OH; thioether N-14) | 45.8
3 | Cc1cccc(C[C@@H]2NC(=O)[C@H](CC(=O)O)NC(=O)[C@H](Cc3ccc(OCC(=O)O)cc3)NC(=O)[C@H](CCCNC(=N)N)NC(=O)CSC[C@@H](C(=O)N[C@@H](CCN)C(=O)NCCCCCCCCCCC(=O)O)NC(=O)[C@H](CCC(N)=O)NC(=O)[C@H](C(C)C)NC(=O)[C@H](CC3CCCCC3)NC(=O)[C@H](CCN)NC(=O)[C@@H](CC(C)C)NC(=O)[C@H](C)N(C)C(=O)[C@H](Cc3ccc(O)cc3)NC(=O)[C@H](Cc3ccc(-c4ccccc4)cc3)NC(=O)[C@H](C(C)C)NC2=O)c1 [Example 2269] ({CH2CO}-RY(Carboxymethyl)D[Phe(3-Me)]V[Bip]Y[NMeA][dL][Dab][Cha]VQC[Dab][Aun]-OH; thioether N-14) | 11.9
4 | CCC(C)[C@@H]1NC(=O)[C@H](Cc2ccc(-c3ccccc3)cc2)NC(=O)[C@H](CC(C)C)NC(=O)[C@H](Cc2cccc(C)c2)NC(=O)[C@H](CC(=O)O)NC(=O)[C@H](Cc2ccc(O)cc2)NC(=O)[C@H](Cc2ccncc2)NC(=O)CSC[C@@H](C(=O)N[C@@H](CCN)C(=O)NCCCCCCCCCCC(=O)O)NC(=O)[C@H](CCCCN)NC(=O)[C@H](C(C)C)NC(=O)[C@H](CC(C)C)NC(=O)[C@H](CCN)NC(=O)[C@@H](C)NC(=O)[C@H](C)N(C)C1=O (stereo partly drawn) [Example 2200] ({CH2CO}-[4Pal]YD[Phe(3-Me)]L[Bip][Ile(3ξ)][NMeA][dA][Dab]LVKC[Dab][Aun]-OH; thioether N-14) | 20.6
5 | Cc1cccc(C[C@@H]2NC(=O)[C@H](CC(=O)O)NC(=O)[C@H](Cc3ccc(OCC(=O)O)cc3)NC(=O)[C@H](CCCNC(=N)N)NC(=O)CSC[C@@H](C(=O)N[C@@H](CCN)C(=O)NCCCCCCCCCCC(=O)O)NC(=O)[C@H](C(C)O)NC(=O)[C@H](C(C)C)NC(=O)[C@H](CC3CCCCC3)NC(=O)[C@H](CCN)NC(=O)[C@@H](CC(C)C)NC(=O)[C@H](C)N(C)C(=O)[C@H](CCCNC(N)=O)NC(=O)[C@H](Cc3ccc(-c4ccccc4)cc3)NC(=O)[C@H](C(C)C)NC2=O)c1 (stereo partly drawn) [Example 2211] ({CH2CO}-RY(Carboxymethyl)D[Phe(3-Me)]V[Bip][Cit][NMeA][dL][Dab][Cha]V[Thr(3ξ)]C[Dab][Aun]-OH; thioether N-14) | 8.5
6 | Cc1cccc(C[C@@H]2NC(=O)[C@H](CC(=O)O)NC(=O)[C@H](Cc3ccc(C(=O)O)cc3)NC(=O)[C@H]([C@@H](C)O)NC(=O)CSC[C@@H](C(=O)N[C@@H](CCN)C(=O)NCCOCCOCC(=O)NCCOCCOCC(=O)NCCCCCCCCCCCCCCC(=O)O)NC(=O)[C@H](CCC(=O)O)NC(=O)[C@H](C(C)(C)O)NC(=O)[C@H](CC3CCCCC3)NC(=O)[C@H](CCN)NC(=O)[C@@H](CC(C)C)NC(=O)[C@H](C)N(C)C(=O)[C@H](Cc3ccc(C(=O)O)cc3)NC(=O)[C@H](Cc3ccc(-c4ccccc4)cc3)NC(=O)[C@H](Cc3ccc(C(=O)O)cc3)NC2=O)c1 [Example 1431] ({CH2CO}-T[Phe(4-COOH)]D[Phe(3-Me)][Phe(4-COOH)][Bip][Phe(4-COOH)][NMeA][dL][Dab][Cha][Val(3-OH)]EC[Dab][AEEA][AEEA]-{NH(CH2)14COOH}; thioether N-14) | 962
7 | Cc1cccc(C[C@@H]2NC(=O)[C@H](CC(=O)O)NC(=O)[C@H](Cc3ccc(OCC(=O)O)cc3)NC(=O)[C@H](CN)NC(=O)CSC[C@@H](C(=O)N[C@@H](CCN)C(=O)NCCCCCCCCCCC(=O)O)NC(=O)[C@H](CCCN)NC(=O)[C@H](C(C)C)NC(=O)[C@H](CC3CCCCC3)NC(=O)[C@H](CCN)NC(=O)[C@@H](CC(C)C)NC(=O)[C@H](C)N(C)C(=O)[C@H](Cc3ccc(O)cc3)NC(=O)[C@H](Cc3ccc(-c4ccccc4)cc3)NC(=O)[C@H](C(C)C)NC2=O)c1 [Example 1315] ({CH2CO}-[Dap]Y(Carboxymethyl)D[Phe(3-Me)]V[Bip]Y[NMeA][dL][Dab][Cha]V[Orn]C[Dab][Aun]-OH; thioether N-14) | 9.9
8 | CCC(C)[C@@H]1NC(=O)[C@H](Cc2ccc(-c3ccccc3)cc2)NC(=O)[C@H](C(C)C)NC(=O)[C@H](Cc2cccc(C)c2)NC(=O)[C@H](CC(=O)O)NC(=O)[C@H](Cc2ccc(OCC(=O)O)cc2)NC(=O)[C@H](CCCNC(=N)N)NC(=O)CSC[C@@H](C(=O)N[C@H](CC(N)=O)C(=O)NCCCCCCCCCCC(=O)O)NC(=O)[C@H](CCCNC(N)=O)NC(=O)[C@H](C(C)C)NC(=O)[C@H](CC2CCCCC2)NC(=O)[C@H](CCN)NC(=O)[C@@H](CC(C)C)NC(=O)[C@H](C)N(C)C1=O (stereo partly drawn) [Example 2288] ({CH2CO}-RY(Carboxymethyl)D[Phe(3-Me)]V[Bip][Ile(3ξ)][NMeA][dL][Dab][Cha]V[Cit]C[dN][Aun]-OH; thioether N-14) | 12.9
9 | Cc1cccc(C[C@@H]2NC(=O)[C@H](CC(=O)O)NC(=O)[C@H](Cc3ccc(OCC(=O)O)cc3)NC(=O)[C@H](Cc3ccc(OCC(=O)O)cc3)NC(=O)CSC[C@@H](C(=O)NC3(C(=O)NCCOCCOCC(=O)NCCCCCCCCCCC(=O)O)CC3)NC(=O)[C@H](CCCN)NC(=O)[C@H](C(C)C)NC(=O)[C@H](CC3CCCCC3)NC(=O)[C@H](CCN)NC(=O)[C@@H](CC(C)C)NC(=O)[C@H](C)N(C)C(=O)[C@H](Cc3ccc(O)cc3)NC(=O)[C@H](Cc3ccc(-c4ccccc4)cc3)NC(=O)[C@H](CC(C)C)NC2=O)c1 [Example 1251] ({CH2CO}-Y(Carboxymethyl)Y(Carboxymethyl)D[Phe(3-Me)]L[Bip]Y[NMeA][dL][Dab][Cha]V[Orn]C[Ac3c][AEEA][Aun]-OH; thioether N-14) | 11.8

same assay, conditions: PE-labeled PD-L1-Ig 20 nM final, Jurkat-hPD-1 cells; read-out: Jurkat HPD1 PDL1 IC50

Row | SMILES | IC50 [nM]
10 | Cc1cccc(C[C@@H]2NC(=O)[C@H](CC(=O)O)NC(=O)[C@H](Cc3ccc(C(=O)O)cc3)NC(=O)[C@H](C(C)O)NC(=O)CSC[C@@H](C(=O)N[C@@H](CCN)C(=O)NCCOCCOCC(=O)NCCOCCOCC(=O)NCCCCCCCCCCC(=O)O)NC(=O)[C@H](CCC(=O)O)NC(=O)[C@H](C(C)C)NC(=O)[C@H](CC3CCCCC3)NC(=O)[C@H](CCN)NC(=O)[C@@H](CC(C)C)NC(=O)[C@H](C)N(C)C(=O)[C@H](Cc3ccc(C(=O)O)cc3)NC(=O)[C@H](Cc3ccc(-c4ccccc4)cc3)NC(=O)[C@H](Cc3ccc(C(=O)O)cc3)NC2=O)c1 (stereo partly drawn) [Example 2538] ({CH2CO}-[Thr(3ξ)][Phe(4-COOH)]D[Phe(3-Me)][Phe(4-COOH)][Bip][Phe(4-COOH)][NMeA][dL][Dab][Cha]VEC[Dab][AEEA][AEEA][Aun]-OH; thioether N-14) | 12.4
11 | Cc1cccc(C[C@@H]2NC(=O)[C@H](CC(=O)O)NC(=O)[C@H](Cc3ccc(OCC(=O)O)cc3)NC(=O)[C@H](C(C)O)NC(=O)CSC[C@@H](C(=O)N[C@@H](CCN)C(=O)NCCOCCOCC(=O)NCCCCCCCCCCC(=O)O)NC(=O)[C@H](CO)NC(=O)[C@H](C(C)(C)O)NC(=O)[C@H](CC3CCCCC3)NC(=O)[C@H](CCN)NC(=O)[C@@H](CC(C)C)NC(=O)[C@H](C)N(C)C(=O)[C@H](Cc3ccc(OCC(=O)O)cc3)NC(=O)[C@H](Cc3ccc(-c4ccccc4)cc3)NC(=O)[C@H](Cc3ccc(OCC(=O)O)cc3)NC2=O)c1 (stereo partly drawn) [Example 2469] ({CH2CO}-[Thr(3ξ)]Y(Carboxymethyl)D[Phe(3-Me)]Y(Carboxymethyl)[Bip]Y(Carboxymethyl)[NMeA][dL][Dab][Cha][Val(3-OH)]SC[Dab][AEEA][Aun]-OH; thioether N-14) | 25.3
12 | Cc1cccc(C[C@@H]2NC(=O)[C@H](CC(=O)O)NC(=O)[C@H](Cc3ccc(C(=O)O)cc3)NC(=O)[C@H](C(C)O)NC(=O)CSC[C@@H](C(=O)N[C@@H](CCN)C(=O)NCCOCCOCC(=O)NCCCCCCCCCCC(=O)O)NC(=O)[C@H](CCC(=O)O)NC(=O)[C@H](C(C)O)NC(=O)[C@H](CC3CCCCC3)NC(=O)[C@H](CCN)NC(=O)[C@@H](CC(C)C)NC(=O)[C@H](C)N(C)C(=O)[C@H](Cc3ccc(C(=O)O)cc3)NC(=O)[C@H](Cc3ccc(-c4ccccc4)cc3)NC(=O)[C@H](Cc3ccc(C(=O)O)cc3)NC2=O)c1 (stereo partly drawn) [Example 2555] ({CH2CO}-[Thr(3ξ)][Phe(4-COOH)]D[Phe(3-Me)][Phe(4-COOH)][Bip][Phe(4-COOH)][NMeA][dL][Dab][Cha][Thr(3ξ)]EC[Dab][AEEA][Aun]-OH; thioether N-14) | 20.2

Reference: US20260070945A1, “MACROCYCLIC IMMUNOMODULATORS” (Bristol-Myers Squibb Company, priority 2022, published 2026)
